Data reported in patent EP3390415B1, “(R)- AND (S)-1-(3-(3-N,N-DIMETHYLAMINOCARBONYL)PHENOXYL-4-NITROPHENYL)-1-ETHYL-N,N'-BIS (ETHYLENE)PHOSPHORAMIDATE, COMPOSITIONS AND METHODS FOR THEIR USE AND PREPARATION” (OBI PHARMA, INC., priority 2015, dated 2017).
Like-named read-outs stand apart in the source and are kept apart here.

Key:
H460 cells = experiment: In vitro proliferation assay, H460; type: cell-based; settings: Homo sapiens, NCI-H460; 2 hrs exposure, wash, additional 70hrs, AlamarBlue; read-out: IC 50 in proliferation assay in H460 cells
Procedure: In vitro proliferation data on the H460 […] human tumor cell line is reported above in the compound table. IC50 values are reported in micromolar and result from exposure of compound at various concentrations for 2 hrs followed by a wash step and addition of fresh media followed by growth and cell viability staining and comparison to a media only treated control.
Specifically, exponentially growing cells were seeded at a density of 4 x 10^3 cells per well in a 96 well plate and incubated at 37°C in 5% CO2, 95% air and 100% relative humidity for 24 hours prior to addition of test compounds. Compounds were solubilized in 100% DMSO at 200 times the desired final test concentration. At the time of drug addition, compounds were further diluted to 4 times the desired final concentration with complete medium. Aliquots of 50 µl of compound at specified concentrations were added to microtiter wells already containing 150 µl of medium, resulting in the final drug concentration reported. After drug addition, the plates were incubated for an additional 2 hours at 37°C, 5% CO2, 95% air, and 100% relative humidity, then the drug was washed off and fresh medium was added and the plates were incubated for addition 70hrs at 37 °C, 5% CO2, 95% air and 100% relative humidity. At the end of this incubation, the viable cells were quantified using the AlamarBlue assay. The drug concentration resulting in growth inhibition of 50% (IC50) was calculated using Prism software (Irvine, CA), and the results were listed in the table.

Recombinant human AKR1C3 = Recombinant human AKR1C3 (Homo sapiens, UniProt P42330); experiment: Activation by the aldoketo reductase AKR1C3; type: biochemical; settings: 5 µM, 2 mM NADPH, 37 °C, up to 120 min; FIG. 2
Procedure: Recombinant human AKR1C3 was diluted to 25 µg/mL in phosphate buffered saline (PBS), pH 7.4 (37 °C), containing 2 mM NADPH. TH2870 or progesterone (positive control) in 30% methanol/70% water was added to the reaction mixture at a final concentration of 5 µM and incubated at 37 °C for 120 minutes. At various times up to 120 min, 50 µL of the reaction mixture was taken and 200 µL acetonitrile containing propranolol as internal standard was added, vortex-mixed and centrifuged for 10 min. The resulting supernatant (5 µL) was injected into a LC/MS/MS for quantitation of % remaining TH 2870 and progesterone. The compounds were tested in duplicates.

HepG2 = experiment: In vitro human tumor cell line cytotoxicity assay; type: cell-based; settings: for IC50: Homo sapiens
C3A = experiment: In vitro human tumor cell line cytotoxicity assay; type: cell-based; settings: for IC50: Homo sapiens
HCCC9810 = experiment: In vitro human tumor cell line cytotoxicity assay; type: cell-based; settings: for IC50: Homo sapiens
PLCPRF5 = experiment: In vitro human tumor cell line cytotoxicity assay; type: cell-based; settings: for IC50: Homo sapiens
SNU-387 = experiment: In vitro human tumor cell line cytotoxicity assay; type: cell-based; settings: for IC50: Homo sapiens
LIXC012 = experiment: In vitro human tumor cell line cytotoxicity assay; type: cell-based; settings: for IC50: Homo sapiens
Vcap = experiment: In vitro human tumor cell line cytotoxicity assay; type: cell-based; settings: for IC50: Homo sapiens, VCaP
[1] = system: A375 melanoma human tumor xenograft; experiment: In vivo human tumor xenograft model, antitumor activity; parameters: species or system nude mice; settings: 20mpk,qdx5x2,ip
Excerpt: Specific pathogen-free homozygous female nude mice (nu/nu, Charles River Laboratories) were used. Mice were given food and water ad libitum and housed in microisolator cages. Four to six week old animals were identified by microchips (Locus Technology, Manchester, MD, USA) at the time of the experiments. All animal studies were approved by the Institutional Animal Care and Use Committee at Threshold Pharmaceuticals, Inc.
All cell lines were from the American Type Culture Collection (ATCC, Rockville, MD, USA).
Cells were mixed with Matrigel (30% in H460) and 0.2 ml per mouse were subcutaneously implanted to the flank area of the animals. When tumor size reached 100-150 mm^3, mice were randomized into experimental or vehicle groups with 10 mice/group and treatment was started (Day 1). The tested compounds were formulated in 5% DMSO in D5W. All compounds were given by IP, QDx5/wk (5 days on, 2 days off) as one cycle, for a total of 2 cycles. Tumor growth and body weight were measured twice a week. Tumor volume was calculated as (length x width^2)/2. Drug efficacy was assessed as Tumor Growth Inhibition (TGI) and Tumor Growth Delay (TGD). TGI was defined as (1-ΔT/ΔC) x 100, where ΔT/ΔC presented the ratio of the change in mean (or median, if variation within the group was relatively large) tumor volume of the treated group and of the control group. TGD was calculated as the extra days for the treated tumor to reach 500mm^3 as compared to the control group. Animals were culled when individual tumor size reached over 2000mm^3 or mean tumor volume exceeded 1000mm^3 in the group. Data are expressed as the mean ± SEM. One-way analysis of variance with Dunnett post comparison test (GraphPad Prism 4) or two-tailed student's t-test were used for analysis. A P level < 0.05 was considered statistically significant.
This study employed an A375 melanoma human tumor xenograft model and the compounds provided herein were compared to thiotepa and the approved anti melanoma drug, Abraxane. […] Mpk refers to mg/kg.

Recombinant human AKR1C3, sequence (P42330 whole entry): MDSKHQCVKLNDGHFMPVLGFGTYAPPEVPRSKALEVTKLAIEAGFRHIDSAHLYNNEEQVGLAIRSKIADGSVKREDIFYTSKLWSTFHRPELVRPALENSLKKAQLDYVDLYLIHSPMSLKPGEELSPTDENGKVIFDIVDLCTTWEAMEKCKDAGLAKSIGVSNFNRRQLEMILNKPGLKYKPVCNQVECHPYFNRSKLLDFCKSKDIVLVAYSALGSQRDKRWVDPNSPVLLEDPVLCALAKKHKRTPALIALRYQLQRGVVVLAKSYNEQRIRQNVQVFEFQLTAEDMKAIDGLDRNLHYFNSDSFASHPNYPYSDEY

**Q.** What does the source list for `CC(OP(=O)(N1CC1)N1CC1)c1ccc([N+](=O)[O-])c(Oc2cccc(C(=O)N(C)C)c2)c1` (racemic) [TH 2870, (R,S)-1-(3-(3-N,N-dimethylaminocarbonyl)phenoxyl-4-nitrophenyl)-1-ethyl-N,N'-bis(ethylene)phosphoramidate]?
**A.** IC50 (H460 cells): 5 nM; disappearance of compound (% remaining) in the presence of AKR1C3 (Recombinant human AKR1C3): rapid disappearance; Max Inhibition% (HepG2): 98.9%; Min Inhibition% (HepG2): 3.3%; IC50 (HepG2; read-out: AbsIC50): 6.4 nM; IC50 (HepG2; read-out: RelIC50): 5.5 nM; Max Inhibition% (C3A): 98.1%; Min Inhibition% (C3A): 8.1%; IC50 (C3A; read-out: AbsIC50): 6.2 nM; IC50 (C3A; read-out: RelIC50): 7.1 nM; Max Inhibition% (HCCC9810): 95.4%; Min Inhibition% (HCCC9810): -2.6%; IC50 (HCCC9810; read-out: AbsIC50): 29.4 nM; IC50 (HCCC9810; read-out: RelIC50): 29.2 nM; Max Inhibition% (PLCPRF5): 53.3%; Min Inhibition% (PLCPRF5): -1.7%; IC50 (PLCPRF5; PLC-PRF-5, read-out: AbsIC50): 575 nM; IC50 (PLCPRF5; PLC-PRF-5, read-out: RelIC50): 474 nM; Max Inhibition% (SNU-387): 102.8%; Min Inhibition% (SNU-387): 1.7%; IC50 (SNU-387; read-out: AbsIC50): 34 nM; IC50 (SNU-387; read-out: RelIC50): 42.2 nM; Max Inhibition% (LIXC012): 87.1%; Min Inhibition% (LIXC012): 6.6%; IC50 (LIXC012; read-out: AbsIC50): 18.7 nM; IC50 (LIXC012; read-out: RelIC50): 27.4 nM; IC50 (Vcap; read-out: AbsIC50): 15.2 nM; IC50 (Vcap; read-out: RelIC50): 22.7 nM; Max Inhibition% (Vcap; Vcap): 100.2%; Min Inhibition% (Vcap; Vcap): -3.4%; TGD500, Days (vs. vehicle) [1]: >13 days; TGI [1]: 98.0%
